Reference: ChEMBL document CHEMBL1153245, “A profile of the in vitro anti-tumor activity of imidazolium-based ionic liquids” (2010)

Columns and labels:
Format in all cases: functional
RXF 393 [1] = assay: Anticancer activity against human RXF393 cells assessed cell growth at 10 uM after 48 hrs by sulforhodamine B assay relative to control
TK-10 = assay: Anticancer activity against human TK10 cells assessed cell growth at 10 uM after 48 hrs by sulforhodamine B assay relative to control
UO-31 = assay: Anticancer activity against human UO31 cells assessed cell growth at 10 uM after 48 hrs by sulforhodamine B assay relative to control
PC-3 = assay: Anticancer activity against human PC3 cells assessed cell growth at 10 uM after 48 hrs by sulforhodamine B assay relative to control
MCF7 [2] = assay: Anticancer activity against human MCF7 cells assessed cell growth at 10 uM after 48 hrs by sulforhodamine B assay relative to control
MDA-MB-468 = assay: Anticancer activity against human MDA-MB-468 cells assessed cell growth at 10 uM after 48 hrs by sulforhodamine B assay relative to control
K562 = assay: Anticancer activity against human K562 cells after 48 hrs by sulforhodamine B assay; conditions: Homo sapiens, K562, 48 h
MOLT-4 = assay: Anticancer activity against human MOLT4 cells after 48 hrs by sulforhodamine B assay; conditions: Homo sapiens, MOLT-4, 48 h
[3] = Anticancer activity against human […] cells after 48 hrs by sulforhodamine B assay; conditions: Homo sapiens, RPMI8266, 48 h
SR = assay: Anticancer activity against human SR cells after 48 hrs by sulforhodamine B assay; conditions: Homo sapiens, SR, 48 h
HOP-92 = assay: Anticancer activity against human HOP92 cells after 48 hrs by sulforhodamine B assay; conditions: Homo sapiens, HOP-92, 48 h
COLO 205 = assay: Anticancer activity against human COLO205 cells after 48 hrs by sulforhodamine B assay; conditions: Homo sapiens, COLO 205, 48 h
HCC 2998 = assay: Anticancer activity against human HCC2998 cells after 48 hrs by sulforhodamine B assay; conditions: Homo sapiens, HCC 2998, 48 h
HCT-15 = assay: Anticancer activity against human HCT15 cells after 48 hrs by sulforhodamine B assay; conditions: Homo sapiens, HCT-15, 48 h
HT-29 = assay: Anticancer activity against human HT-29 cells after 48 hrs by sulforhodamine B assay; conditions: Homo sapiens, HT-29, 48 h
SW-620 = assay: Anticancer activity against human SW620 cells after 48 hrs by sulforhodamine B assay; conditions: Homo sapiens, SW-620, 48 h
LOX IMVI [4] = assay: Anticancer activity against human LOXIMVI cells after 48 hrs by sulforhodamine B assay; conditions: Homo sapiens, LOX IMVI, 48 h
A549 = assay: Anticancer activity against human A549 cells assessed cell growth at 10 uM after 48 hrs by sulforhodamine B assay relative to control
HOP-62 = assay: Anticancer activity against human HOP62 cells assessed cell growth at 10 uM after 48 hrs by sulforhodamine B assay relative to control
NCI-H322M = assay: Anticancer activity against human NCI-H322M cells assessed cell growth at 10 uM after 48 hrs by sulforhodamine B assay relative to control
NCI-H460 = assay: Anticancer activity against human NCI-H460 cells assessed cell growth at 10 uM after 48 hrs by sulforhodamine B assay relative to control
SNB-19 = assay: Anticancer activity against human SNB19 cells assessed cell growth at 10 uM after 48 hrs by sulforhodamine B assay relative to control
LOX IMVI [5] = assay: Anticancer activity against human LOXIMVI cells assessed cell growth at 10 uM after 48 hrs by sulforhodamine B assay relative to control
IGROV-1 = assay: Anticancer activity against human IGROV1 cells assessed cell growth at 10 uM after 48 hrs by sulforhodamine B assay relative to control
OVCAR-8 = assay: Anticancer activity against human OVCAR8 cells assessed cell growth at 10 uM after 48 hrs by sulforhodamine B assay relative to control
M14 = assay: Anticancer activity against human M14 cells after 48 hrs by sulforhodamine B assay; conditions: Homo sapiens, M14, 48 h
SK-MEL-5 = assay: Anticancer activity against human SK-MEL-5 cells after 48 hrs by sulforhodamine B assay; conditions: Homo sapiens, SK-MEL-5, 48 h
UACC-257 = assay: Anticancer activity against human UACC257 cells after 48 hrs by sulforhodamine B assay; conditions: Homo sapiens, UACC-257, 48 h
OVCAR-3 = assay: Anticancer activity against human OVCAR-3 cells after 48 hrs by sulforhodamine B assay; conditions: Homo sapiens, OVCAR-3, 48 h
OVCAR-4 = assay: Anticancer activity against human OVCAR4 cells after 48 hrs by sulforhodamine B assay; conditions: Homo sapiens, OVCAR-4, 48 h
SK-OV-3 = assay: Anticancer activity against human SKOV3 cells after 48 hrs by sulforhodamine B assay; conditions: Homo sapiens, SK-OV-3, 48 h
786-0 = assay: Anticancer activity against human 786-0 cells after 48 hrs by sulforhodamine B assay; conditions: Homo sapiens, 786-0, 48 h
CAKI-1 = assay: Anticancer activity against human Caki1 cells after 48 hrs by sulforhodamine B assay; conditions: Homo sapiens, CAKI-1, 48 h
RXF 393 [6] = assay: Anticancer activity against human RXF393 cells after 48 hrs by sulforhodamine B assay; conditions: Homo sapiens, RXF 393, 48 h
SN12C = assay: Anticancer activity against human SN12C cells after 48 hrs by sulforhodamine B assay; conditions: Homo sapiens, SN12C, 48 h
MCF7 [7] = assay: Anticancer activity against human MCF7 cells after 48 hrs by sulforhodamine B assay; conditions: Homo sapiens, MCF7, 48 h
NCI/ADR-RES = assay: Anticancer activity against human NCI/ADR-RES cells after 48 hrs by sulforhodamine B assay; conditions: Homo sapiens, NCI/ADR-RES, 48 h
MDA-MB-231 = assay: Anticancer activity against human MDA-MB-231 cells after 48 hrs by sulforhodamine B assay; conditions: Homo sapiens, MDA-MB-231, 48 h
MDA-MB-435 = assay: Anticancer activity against human MDA-MB-435 cells after 48 hrs by sulforhodamine B assay; conditions: Homo sapiens, MDA-MB-435, 48 h
BT-549 = assay: Anticancer activity against human BT549 cells after 48 hrs by sulforhodamine B assay; conditions: Homo sapiens, BT-549, 48 h
T47D = assay: Anticancer activity against human T47D cells after 48 hrs by sulforhodamine B assay; conditions: Homo sapiens, T47D, 48 h
[8] = read-out: LC50 (the source's name)

## CCCCCCCCCCCCCCCCCC[n+]1ccn(C)c1.FC(F)(F)C(F)(F)[P-](F)(F)(F)(C(F)(F)C(F)(F)F)C(F)(F)C(F)(F)F
RXF 393 [1]
  Activity: -44.46%
TK-10
  Activity: -60.38%
UO-31
  Activity: -55.23%
PC-3
  Activity: -57.75%
MCF7 [2]
  Activity: 2.61%
MDA-MB-468
  Activity: 5.93%
K562
  GI50: 238 nM
K562; [8]
  CC50: > 100000 nM
MOLT-4
  GI50: 336 nM
  LC50: > 100000 nM
[3]
  GI50: 86 nM
[3]; [8]
  CC50: > 100000 nM
SR
  GI50: 3370 nM
SR; [8]
  CC50: > 100000 nM
HOP-92
  GI50: 211 nM
HOP-92; [8]
  CC50: 22000 nM
COLO 205
  GI50: 196 nM
COLO 205; [8]
  CC50: 778 nM
HCC 2998
  GI50: 271 nM
HCC 2998; [8]
  CC50: 25500 nM
HCT-15
  GI50: 309 nM
HCT-15; [8]
  CC50: 4410 nM
HT-29
  GI50: 315 nM
HT-29; [8]
  CC50: > 100000 nM
SW-620
  GI50: 328 nM
  LC50: 3740 nM
LOX IMVI [4]
  GI50: 164 nM
LOX IMVI [4]; [8]
  CC50: 678 nM
A549
  Activity: -19.59%
HOP-62
  Activity: -79.75%
NCI-H322M
  Activity: 5.98%
NCI-H460
  Activity: -53.73%
SNB-19
  Activity: -34.47%
LOX IMVI [5]
  Activity: -25.56%
IGROV-1
  Activity: -30.94%
OVCAR-8
  Activity: -31.79%
M14
  GI50: 402 nM
  LC50 (50% lethal concentration): > 100000 nM
SK-MEL-5
  GI50: 313 nM
SK-MEL-5; [8]
  CC50: 3310 nM
UACC-257
  GI50: 523 nM
  LC50: 9710 nM
OVCAR-3
  GI50: 316 nM
  LC50 (50% lethal concentration): 3790 nM
OVCAR-4
  GI50: 320 nM
OVCAR-4; [8]
  CC50: > 100000 nM
SK-OV-3
  GI50: 355 nM
SK-OV-3; [8]
  CC50: 3830 nM
786-0
  GI50: 425 nM
  LC50 (50% lethal concentration): 5360 nM
CAKI-1
  GI50: 293 nM
  LC50: 7460 nM
RXF 393 [6]
  GI50: 930 nM
  LC50: 8310 nM
SN12C
  GI50: 353 nM
  LC50: 4180 nM
MCF7 [7]
  GI50: 309 nM
  LC50 (50% cell kill): 4690 nM
NCI/ADR-RES
  GI50: 412 nM
  LC50: 12500 nM
MDA-MB-231
  GI50: 378 nM
MDA-MB-231; [8]
  CC50: 4820 nM
MDA-MB-435
  GI50: 344 nM
MDA-MB-435; [8]
  CC50: 2930 nM
BT-549
  GI50: 334 nM
BT-549; [8]
  CC50: 4200 nM
T47D
  GI50: 282 nM
T47D; [8]
  CC50: 63700 nM
